Data set [1] in a line: Plasma and urine pharmacokinetics following multiple dosing. To be noted: for CL renal: Mean renal clearance.
The nature of data set [2]: CSF pharmacokinetics following multiple dosing. Particulars: both, human, in vivo.
A short description of data set [3]: Adverse events, single ascending dose.
The nature of data set [4]: Adverse events, multiple ascending dose. Particulars: MAD.
Data set [5] is described as follows: Plasma pharmacokinetics following single dose. The data set is classed as in vivo. To be noted: both, human, oral.
Data set [6] in a line: CSF pharmacokinetics following single dose.

Bounds are passed on as bounds.

As to `C[C@@]1(c2cc(NC(=O)c3ccc(C#N)cn3)ccc2F)C=CSC(N)=N1` [JNJ-54861911], the Tmax in data set [1] (both, human, in vivo) was 2 to 4 h; in data set [2], about 4 h; in data set [5], 0.75 to 2 h. For the same compound, the half-life in data set [1] (both, human, in vivo) lay in the range of 14.4 to 18.5 h; in data set [2], 11.7 to 14.4 h; in data set [5], 9 to 16.1 h. The CL renal in data set [1] (human, in vivo, day 1 (single dose)) was 1.85 mL/min; in data set [1] (human, in vivo, day 14) it was 1.92 mL/min. In data set [1] (plasma, multiple dosing, all cohorts), the “Steady state concentrations reached” value is at most 5 days. Also, the “Serious AEs (SAEs)” value in data set [3] (SAD and MAD studies) is given as “no serious AEs”. The “Back pain, participants with AE” value in data set [3] (SAD, all JNJ-54861911 participants (10/42)) is recorded as 23.8%; in data set [4] (all JNJ-54861911 participants (11/52)), 21.2%. For the same compound, the “Headache, participants with AE” value in data set [3] (SAD, all JNJ-54861911 participants (16/42)) came out at 38.1%; in data set [4] (all JNJ-54861911 participants (13/52)) it was 25.0%. Also, the Tolerability result in data set [3] (single and multiple oral doses between 1 and 150 mg (SAD and MAD studies), healthy participants) is “well-tolerated”. For the same compound, the “Single-dose CSF concentrations” value in data set [6] (CSF, 1-mg and 3-mg dose level, elderly) is on record as “generally below the LOQ”. Besides, in data set [6] (day 1, single dose, range across 10–150 mg), the “Maximal mean concentrations in CSF” value lay in the range of 2.94 to 22.7 ng/mL.

Source of the values: paper PMC5651349 (Alzheimer's & Dementia : Translational Research & Clinical …, 2016).
